Assay results as given in ChEMBL document CHEMBL3885861, “Open TG-GATES”.

Organism: Rattus norvegicus
Experiment: Open TG-GATES - Regimen: Single
Assay type: toxicity, organism-based, Sprague-Dawley
Design: regimen Single, gender Male, age 6 weeks
Settings: in vivo, po, 0 mg/kg, route gavage, dose level Control; for APTT / Bas / Eos / Fbg / Hb / Ht / Lym / MCH / MCHC / MCV / Mono / Neu / PT / Plat / RBC / Ret / WBC: tissue Blood; for KIDNEY_L / KIDNEY_R / KIDNEY_TOTAL: tissue Kidney; for LIVER: tissue Liver; for A/G / ALP / ALT / AST / BUN / CRE / Ca / Cl / DBIL / GLC / IP / K / LDH / Na / PL / RALB / TBIL / TC / TG / TP / gamma-GTP: tissue Plasma

## O=c1ccc2ccccc2o1 [COUMARIN]
3 h
  TERMINAL_BW: 182.8 g
  APTT: 16.6 s
  Bas: 0%
  Eos: 0.6%
  Fbg: 205.4 mg/dL
  Hb: 13.5 g/dL
  Ht: 40%
  Lym: 83.8%
  MCH: 22.1 pg
  MCHC: 33.6%
  MCV: 65.8 fL
  Mono: 4.8%
  Neu: 11%
  PT: 12.3 s
  Plat: 106.1 x10_4/uL
  RBC: 608.6 x10_4/ul
  Ret: 8.9%
  WBC: 102.6 x10_2/uL
  KIDNEY_L: 0.8 g
  KIDNEY_R: 0.8 g
  KIDNEY_TOTAL: 1.7 g
  LIVER: 8.4 g
  A/G: 2.1
  ALP: 1014.2 IU/L
  ALT: 43 IU/L
  AST: 69.4 IU/L
  BUN: 11.2 mg/dL
  CRE: 0.5 mg/dL
  Ca: 10.9 mg/dL
  Cl: 104.8 meq/L
  DBIL: 0.026 mg/dL
  GLC: 189.4 mg/dL
  IP: 10.7 mg/dL
  K: 4.7 meq/L
  LDH: 76.6 IU/L
  Na: 138.6 meq/L
  PL: 158.2 mg/dL
  RALB: 4 g/dL
  TBIL: 0.3 mg/dL
  TC: 81.4 mg/dL
  TG: 99.4 mg/dL
  TP: 5.8 g/dL
  gamma-GTP: 1.6 IU/L
6 h
  TERMINAL_BW: 179.5 g
  APTT: 16.3 s
  Bas: 0%
  Eos: 0.8%
  Fbg: 205.8 mg/dL
  Hb: 13.5 g/dL
  Ht: 40.4%
  Lym: 75.4%
  MCH: 21.8 pg
  MCHC: 33.4%
  MCV: 65.4 fL
  Mono: 7.8%
  Neu: 16.6%
  PT: 12.4 s
  Plat: 108.2 x10_4/uL
  RBC: 617.2 x10_4/ul
  Ret: 9.3%
  WBC: 115.3 x10_2/uL
  KIDNEY_L: 0.8 g
  KIDNEY_R: 0.9 g
  KIDNEY_TOTAL: 1.7 g
  LIVER: 7.7 g
  A/G: 2.1
  ALP: 982 IU/L
  ALT: 36.4 IU/L
  AST: 66.6 IU/L
  BUN: 11.4 mg/dL
  CRE: 0.5 mg/dL
  Ca: 10.4 mg/dL
  Cl: 107.8 meq/L
  DBIL: 0.002 mg/dL
  GLC: 184.6 mg/dL
  IP: 11.3 mg/dL
  K: 5.4 meq/L
  LDH: 96.8 IU/L
  Na: 139.4 meq/L
  PL: 144.4 mg/dL
  RALB: 3.8 g/dL
  TBIL: 0.3 mg/dL
  TC: 82 mg/dL
  TG: 52.2 mg/dL
  TP: 5.6 g/dL
  gamma-GTP: 1.4 IU/L
9 h
  TERMINAL_BW: 180 g
  APTT: 16 s
  Bas: 0%
  Eos: 0.8%
  Fbg: 206.8 mg/dL
  Hb: 13.1 g/dL
  Ht: 39.4%
  Lym: 79.2%
  MCH: 21.9 pg
  MCHC: 33.3%
  MCV: 65.9 fL
  Mono: 6.4%
  Neu: 14%
  PT: 12.4 s
  Plat: 117.4 x10_4/uL
  RBC: 598.6 x10_4/ul
  Ret: 9.2%
  WBC: 106.8 x10_2/uL
  KIDNEY_L: 0.9 g
  KIDNEY_R: 0.9 g
  KIDNEY_TOTAL: 1.7 g
  LIVER: 7.4 g
  A/G: 2.1
  ALP: 975.8 IU/L
  ALT: 31.2 IU/L
  AST: 59.4 IU/L
  BUN: 12.4 mg/dL
  CRE: 0.5 mg/dL
  Ca: 10.7 mg/dL
  Cl: 106 meq/L
  DBIL: 0.022 mg/dL
  GLC: 190.8 mg/dL
  IP: 11 mg/dL
  K: 5.1 meq/L
  LDH: 82.2 IU/L
  Na: 138.2 meq/L
  PL: 139 mg/dL
  RALB: 3.7 g/dL
  TBIL: 0.3 mg/dL
  TC: 79.4 mg/dL
  TG: 36.6 mg/dL
  TP: 5.5 g/dL
  gamma-GTP: 1.6 IU/L
24 h
  TERMINAL_BW: 191.8 g
  APTT: 16.1 s
  Bas: 0%
  Eos: 0.8%
  Fbg: 205.4 mg/dL
  Hb: 13.2 g/dL
  Ht: 39.3%
  Lym: 77.2%
  MCH: 21.8 pg
  MCHC: 33.4%
  MCV: 65.1 fL
  Mono: 8.8%
  Neu: 13.6%
  PT: 12.5 s
  Plat: 106.5 x10_4/uL
  RBC: 604.2 x10_4/ul
  Ret: 8.3%
  WBC: 132 x10_2/uL
  KIDNEY_L: 0.9 g
  KIDNEY_R: 0.9 g
  KIDNEY_TOTAL: 1.8 g
  LIVER: 9 g
  A/G: 1.9
  ALP: 985.2 IU/L
  ALT: 37 IU/L
  AST: 64.4 IU/L
  BUN: 16.2 mg/dL
  CRE: 0.5 mg/dL
  Ca: 10.8 mg/dL
  Cl: 105.4 meq/L
  DBIL: 0 mg/dL
  GLC: 184.4 mg/dL
  IP: 7.9 mg/dL
  K: 5.5 meq/L
  LDH: 92.6 IU/L
  Na: 137.8 meq/L
  PL: 138 mg/dL
  RALB: 3.7 g/dL
  TBIL: 0.3 mg/dL
  TC: 76 mg/dL
  TG: 82.8 mg/dL
  TP: 5.6 g/dL
  gamma-GTP: 1.2 IU/L
